In US6605602B1, “Method of treating BK virus nephropathy” (University of Pittsburgh-of the Commonwealth System of …, priority 2001, dated 2003):

Columns and labels:
[1] = test system: polyoma viral DNA replication; conditions: in vitro studies; cited from earlier work
BK virus (BKV) = assay: Cidofovir treatment of renal transplant recipients with BKV nephropathy; BKV viral load by TaqMan QPCR; assay type: in vivo, human
Protocol: Nucleic acid was extracted from urine and plasma specimens (150 μl of urine or plasma per specimen) using the Qui Amp Viral RNA Minikit, commercially available from Qiagen, Inc. The extraction procedure was performed according to the manufacturer's instructions provided with the kit.
A BKV gene sequence from the VP-1 region was amplified by the real-time TaqMan QPCR assay using the following primers and probe. The forward BKVN primer had the sequence 5′-[…]-3′ (SEQ ID NO. 1) and a Tm of 59° C. The reverse BKVN primer had the sequence 5′-[…]-3′ (SEQ ID NO. 2) and a Tm of 59° C. The TaqMan probe had the sequence 5′-[…]-3′ (SEQ ID NO. 4) and a Tm of 68° C. The TaqMan probe was labeled at the 5′ end with a FAM dye and at the 3′ end with a TAMRA dye. […]
In order to generate a positive control, a BKV gene sequence from the VP-1 region encompassing the TaqMan primer amplicon was cloned in a vector using the pGEM-T PCR cloning system (Promega, Madison, Wis.). The above sequence was then quantitated using UV spectrophotometry in order to calculate the copy number for a master standard positive control. A 10× serial dilution of standard positive control, with copies ranging from 10^7 to 10^10 was made and used to generate a standard curve with each quantitative assay. […] The urinary viral load was expressed as BKV copies/μl of urine. The plasma viral load was expressed as BKV copies/μl. […]

[2] = Serum creatinine of cidofovir-treated BKVN renal transplant patients; assay type: in vivo, human; parameters: Current Creatinine: unit: mg/dl
Protocol: Four patients were treated with cidofovir at a dosage level of […], 2-3 times weekly. This is […] of the recommended dose of 5 mg/kg. In addition, cidofovir was administered without probenecid.
Subsequently, the serum creatinine progressively rose to 8 mg/dl. At this point, a combination of IV IgG, high dose steroids and a single dose of cidofovir (1 mg/kg IV without probenecid) was administered.

[3] = within 24 hours of administration; usual dosage 5 mg/kg; cited from earlier work
[4] = contraindicated in patients with impaired renal function; cited from earlier work
JC virus = conditions: patients, infection caused by JC virus; cited from earlier work

SMILES	inhibition of polyoma viral DNA replication [1]	BKV in urine and blood samples by QPCR (BK virus (BKV); case report Patient #1, two months after single dose 1 mg/kg IV without probenecid, combined with IV IgG and high dose steroids)	clearance of BKV viruria, number of doses needed (BK virus (BKV); four BKVN patients, 0.25 to 1.0 mg/kg, 2-3 times weekly, without probenecid)	Current Creatinine ([2]; Patient 1, Post Urethral valve, 3 doses (20-20-40 mg))	Current Creatinine ([2]; Patient 2, Diabetic Nephropathy, 3 doses (70-35-15 mg))	Current Creatinine ([2]; Patient 3, Renal Dysplasia, 1 dose (20 mg))	Current Creatinine ([2]; Patient 4, IgA Nephropathy, 4 doses (200-200-200-70 mg))	serum creatinine after treatment ([2]; case report Patient #1, after resuming full immunosuppression, had risen to 8 mg/dl before treatment)	dose excreted in the urine unchanged [3]	nephrotoxicity [4]	effect in progressive multifocal leukoencephalopathy (JC virus)
Nc1ccn([C@@H]2O[C@H](CO)[C@@H](O)[C@@H]2O)c(=O)n1 [cytosine arabinoside]	inhibit polyoma viral DNA replication	–	–	–	–	–	–	–	–	–	–
Nc1ccn(C[C@@H](CO)OCP(=O)(O)O)c(=O)n1 [cidofovir, (S)-1-(3-hydroxy-2-phosphonylmethoxypropyl) cytosine]	inhibit polyoma viral DNA replication	Neither sample was amplifiable for BKV	2-4 doses	1.8	3.2	1.7	3	1.7 to 1.9 mg/dL	75-80%	nephrotoxic	reportedly effective
